Common to all, as to experiment: cell-based
Common to all, as to parameters: NanoBRET live-cell target engagement; % occupancy from displacement of tracer K10 on NanoLuc-kinase fusions, mean n=3
What all share (conditions): HEK293, read-out: % inhibition

One experiment addresses NEK2 (Homo sapiens, UniProt P51955). An outline of the steps:
(§1)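 Live-cell NanoBRET target engagement: cells expressing kinase–NanoLuc fusion with tracer treated with compound 2 h at 37 °C, 5% CO2. BRET read from donor (450 nm) and acceptor (610/630 nm) emission with 20 μM extracellular NanoLuc inhibitor; % occupancy calculated relative to tracer+DMSO and zero-BRET controls.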

Another experiment addresses FGFR3 (Homo sapiens, UniProt P22607). An outline of the steps: as §1
A further experiment concerns the target MKNK2 (Homo sapiens, UniProt Q9HBH9). In a few lines:
as §1

The target of another experiment is NEK11 (Homo sapiens, UniProt Q8NG66). In a few lines: as §1
Another experiment concerns the target AKT2 (Homo sapiens, UniProt P31751). An outline of the steps: as §1
Another experiment has as its target ERN1 (Homo sapiens, UniProt O75460). In a few lines: as §1
The target in the next experiment is ABL2 (Homo sapiens, UniProt P42684). An outline of the steps: as §1
The target of the next experiment is PRKX (Homo sapiens, UniProt P51817). An outline of the steps:
as §1

A further experiment deals with MYLK3 (Homo sapiens, UniProt Q32MK0). In a few lines: as §1
Another experiment deals with DCLK3 (Homo sapiens, UniProt Q9C098). In a few lines:
as §1

For another experiment, the target named is PLK4 (Homo sapiens, UniProt O00444). In a few lines:
as §1

A further experiment addresses PHKG1 (Homo sapiens, UniProt Q16816). In a few lines: as §1
For a further experiment, the target named is SLK (Homo sapiens, UniProt Q9H2G2). An outline of the steps: as §1
The target in a further experiment is HIPK2 (Homo sapiens, UniProt Q9H2X6). An outline of the steps:
as §1

Another experiment deals with NEK3 (Homo sapiens, UniProt P51956). An outline of the steps:
as §1

The next experiment deals with RPS6KA2 (Homo sapiens, UniProt Q15349). In a few lines: as §1
In a further experiment the target is MARK4 (Homo sapiens, UniProt Q96L34). An outline of the steps:
as §1

A further experiment deals with CDK17 (Homo sapiens, UniProt Q00537). An outline of the steps: as §1

FGFR3, sequence (P22607 whole entry): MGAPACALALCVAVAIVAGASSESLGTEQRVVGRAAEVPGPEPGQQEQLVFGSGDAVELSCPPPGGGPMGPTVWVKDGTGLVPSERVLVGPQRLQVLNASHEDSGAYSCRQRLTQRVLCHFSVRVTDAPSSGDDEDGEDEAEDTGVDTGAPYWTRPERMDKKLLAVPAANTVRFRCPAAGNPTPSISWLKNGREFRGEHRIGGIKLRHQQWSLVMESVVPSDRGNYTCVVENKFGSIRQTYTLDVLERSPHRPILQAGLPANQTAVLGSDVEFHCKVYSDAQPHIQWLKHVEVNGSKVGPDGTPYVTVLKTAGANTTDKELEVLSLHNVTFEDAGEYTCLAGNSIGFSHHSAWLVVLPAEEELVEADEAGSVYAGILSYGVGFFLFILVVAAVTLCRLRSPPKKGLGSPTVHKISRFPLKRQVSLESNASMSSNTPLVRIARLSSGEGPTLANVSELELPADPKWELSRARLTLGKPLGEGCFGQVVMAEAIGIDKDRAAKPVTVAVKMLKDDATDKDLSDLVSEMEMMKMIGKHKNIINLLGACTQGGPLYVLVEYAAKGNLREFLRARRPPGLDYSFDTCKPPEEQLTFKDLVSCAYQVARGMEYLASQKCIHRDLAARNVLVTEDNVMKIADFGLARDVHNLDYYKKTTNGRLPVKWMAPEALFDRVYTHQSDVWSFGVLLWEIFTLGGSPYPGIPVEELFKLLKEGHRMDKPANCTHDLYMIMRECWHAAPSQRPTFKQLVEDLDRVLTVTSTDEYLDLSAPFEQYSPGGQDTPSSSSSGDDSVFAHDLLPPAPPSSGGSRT
HIPK2, sequence (Q9H2X6 whole entry): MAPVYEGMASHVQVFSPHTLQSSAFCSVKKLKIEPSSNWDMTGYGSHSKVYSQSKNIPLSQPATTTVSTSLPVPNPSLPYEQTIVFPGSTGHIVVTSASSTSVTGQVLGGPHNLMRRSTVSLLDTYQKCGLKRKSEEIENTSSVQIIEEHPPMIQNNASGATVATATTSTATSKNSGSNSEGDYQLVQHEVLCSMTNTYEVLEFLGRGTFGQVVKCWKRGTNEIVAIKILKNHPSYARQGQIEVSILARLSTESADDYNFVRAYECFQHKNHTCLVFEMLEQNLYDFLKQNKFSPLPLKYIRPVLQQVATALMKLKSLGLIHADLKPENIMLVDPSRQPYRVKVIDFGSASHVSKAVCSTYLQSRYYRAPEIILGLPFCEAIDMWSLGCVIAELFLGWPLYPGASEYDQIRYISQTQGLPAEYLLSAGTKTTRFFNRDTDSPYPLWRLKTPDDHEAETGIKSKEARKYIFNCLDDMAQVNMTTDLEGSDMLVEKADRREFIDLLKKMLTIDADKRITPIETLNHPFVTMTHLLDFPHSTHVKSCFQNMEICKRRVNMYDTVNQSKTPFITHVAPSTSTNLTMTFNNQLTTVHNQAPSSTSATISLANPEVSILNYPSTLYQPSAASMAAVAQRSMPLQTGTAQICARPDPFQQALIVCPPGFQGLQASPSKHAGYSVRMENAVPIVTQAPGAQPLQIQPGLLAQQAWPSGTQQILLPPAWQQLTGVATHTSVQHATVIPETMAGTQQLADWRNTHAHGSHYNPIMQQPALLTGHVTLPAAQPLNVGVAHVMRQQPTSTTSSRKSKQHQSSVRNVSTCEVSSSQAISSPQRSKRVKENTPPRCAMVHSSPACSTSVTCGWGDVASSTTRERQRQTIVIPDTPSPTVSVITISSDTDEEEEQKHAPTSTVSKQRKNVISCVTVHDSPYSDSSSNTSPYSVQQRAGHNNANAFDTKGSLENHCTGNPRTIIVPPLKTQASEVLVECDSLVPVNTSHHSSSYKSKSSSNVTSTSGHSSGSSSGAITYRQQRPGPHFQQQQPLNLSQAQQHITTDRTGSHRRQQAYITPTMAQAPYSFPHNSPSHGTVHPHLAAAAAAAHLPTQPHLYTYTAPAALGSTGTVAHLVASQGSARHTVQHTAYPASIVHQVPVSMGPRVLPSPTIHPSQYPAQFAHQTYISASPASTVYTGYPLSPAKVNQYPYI
AKT2, sequence (P31751 whole entry): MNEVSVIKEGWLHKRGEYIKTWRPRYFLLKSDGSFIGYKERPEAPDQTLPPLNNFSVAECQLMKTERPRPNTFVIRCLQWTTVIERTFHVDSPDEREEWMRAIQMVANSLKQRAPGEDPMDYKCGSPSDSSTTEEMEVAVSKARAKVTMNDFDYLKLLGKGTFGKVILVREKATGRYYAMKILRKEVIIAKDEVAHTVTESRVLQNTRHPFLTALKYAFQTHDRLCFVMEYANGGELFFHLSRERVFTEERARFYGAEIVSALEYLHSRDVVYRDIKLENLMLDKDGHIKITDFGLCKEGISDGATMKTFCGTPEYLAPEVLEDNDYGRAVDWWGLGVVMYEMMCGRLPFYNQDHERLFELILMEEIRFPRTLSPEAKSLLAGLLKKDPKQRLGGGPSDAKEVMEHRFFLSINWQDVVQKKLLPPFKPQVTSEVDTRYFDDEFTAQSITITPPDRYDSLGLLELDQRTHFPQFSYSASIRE
DCLK3, sequence (Q9C098 whole entry): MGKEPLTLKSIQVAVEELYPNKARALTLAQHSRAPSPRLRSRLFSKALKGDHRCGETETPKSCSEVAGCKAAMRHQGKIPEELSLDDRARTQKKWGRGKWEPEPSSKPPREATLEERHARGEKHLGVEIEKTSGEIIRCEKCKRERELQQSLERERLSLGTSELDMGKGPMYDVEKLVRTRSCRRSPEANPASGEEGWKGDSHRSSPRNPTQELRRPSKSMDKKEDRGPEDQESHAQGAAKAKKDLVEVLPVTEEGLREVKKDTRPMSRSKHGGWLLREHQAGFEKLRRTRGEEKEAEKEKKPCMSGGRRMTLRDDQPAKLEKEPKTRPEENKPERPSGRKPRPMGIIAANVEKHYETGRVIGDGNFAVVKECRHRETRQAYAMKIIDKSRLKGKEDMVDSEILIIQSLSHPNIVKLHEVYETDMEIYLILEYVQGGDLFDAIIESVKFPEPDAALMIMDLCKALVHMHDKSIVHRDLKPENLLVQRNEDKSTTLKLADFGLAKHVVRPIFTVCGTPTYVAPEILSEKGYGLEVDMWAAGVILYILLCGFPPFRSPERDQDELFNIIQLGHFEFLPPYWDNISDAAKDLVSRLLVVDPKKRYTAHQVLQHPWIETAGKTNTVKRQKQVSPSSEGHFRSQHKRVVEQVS
MARK4, sequence (Q96L34 whole entry): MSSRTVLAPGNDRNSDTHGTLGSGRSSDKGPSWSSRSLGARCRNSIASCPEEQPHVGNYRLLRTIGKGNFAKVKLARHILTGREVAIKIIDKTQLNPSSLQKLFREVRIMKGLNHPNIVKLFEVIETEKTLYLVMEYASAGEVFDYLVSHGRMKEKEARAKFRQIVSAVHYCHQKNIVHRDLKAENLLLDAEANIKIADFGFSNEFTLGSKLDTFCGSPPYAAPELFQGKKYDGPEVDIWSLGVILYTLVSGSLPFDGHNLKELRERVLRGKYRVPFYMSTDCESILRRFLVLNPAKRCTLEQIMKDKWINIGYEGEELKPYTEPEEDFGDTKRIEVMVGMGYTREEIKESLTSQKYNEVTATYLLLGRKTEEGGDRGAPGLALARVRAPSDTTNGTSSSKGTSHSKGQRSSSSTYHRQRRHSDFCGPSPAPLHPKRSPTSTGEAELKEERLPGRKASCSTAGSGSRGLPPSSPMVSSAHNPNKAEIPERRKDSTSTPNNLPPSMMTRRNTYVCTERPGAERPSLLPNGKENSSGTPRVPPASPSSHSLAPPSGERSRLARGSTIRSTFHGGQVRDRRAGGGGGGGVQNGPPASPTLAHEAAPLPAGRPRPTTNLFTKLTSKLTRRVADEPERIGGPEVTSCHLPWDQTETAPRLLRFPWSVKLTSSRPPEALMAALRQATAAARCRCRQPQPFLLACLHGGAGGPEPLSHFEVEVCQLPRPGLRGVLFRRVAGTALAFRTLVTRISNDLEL
NEK2, sequence (P51955 whole entry, the tested form may be a part): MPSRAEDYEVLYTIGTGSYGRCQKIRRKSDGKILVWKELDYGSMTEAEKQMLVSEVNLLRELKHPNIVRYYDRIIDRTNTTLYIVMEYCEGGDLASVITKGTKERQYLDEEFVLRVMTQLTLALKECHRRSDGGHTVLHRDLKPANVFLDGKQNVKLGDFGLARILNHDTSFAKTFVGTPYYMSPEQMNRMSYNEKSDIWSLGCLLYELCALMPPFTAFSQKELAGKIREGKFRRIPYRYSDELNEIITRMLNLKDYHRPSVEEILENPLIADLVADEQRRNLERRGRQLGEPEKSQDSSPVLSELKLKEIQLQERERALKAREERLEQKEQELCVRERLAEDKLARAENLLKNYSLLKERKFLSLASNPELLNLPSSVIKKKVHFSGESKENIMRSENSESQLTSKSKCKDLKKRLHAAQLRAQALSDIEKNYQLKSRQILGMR
RPS6KA2, sequence (Q15349 whole entry): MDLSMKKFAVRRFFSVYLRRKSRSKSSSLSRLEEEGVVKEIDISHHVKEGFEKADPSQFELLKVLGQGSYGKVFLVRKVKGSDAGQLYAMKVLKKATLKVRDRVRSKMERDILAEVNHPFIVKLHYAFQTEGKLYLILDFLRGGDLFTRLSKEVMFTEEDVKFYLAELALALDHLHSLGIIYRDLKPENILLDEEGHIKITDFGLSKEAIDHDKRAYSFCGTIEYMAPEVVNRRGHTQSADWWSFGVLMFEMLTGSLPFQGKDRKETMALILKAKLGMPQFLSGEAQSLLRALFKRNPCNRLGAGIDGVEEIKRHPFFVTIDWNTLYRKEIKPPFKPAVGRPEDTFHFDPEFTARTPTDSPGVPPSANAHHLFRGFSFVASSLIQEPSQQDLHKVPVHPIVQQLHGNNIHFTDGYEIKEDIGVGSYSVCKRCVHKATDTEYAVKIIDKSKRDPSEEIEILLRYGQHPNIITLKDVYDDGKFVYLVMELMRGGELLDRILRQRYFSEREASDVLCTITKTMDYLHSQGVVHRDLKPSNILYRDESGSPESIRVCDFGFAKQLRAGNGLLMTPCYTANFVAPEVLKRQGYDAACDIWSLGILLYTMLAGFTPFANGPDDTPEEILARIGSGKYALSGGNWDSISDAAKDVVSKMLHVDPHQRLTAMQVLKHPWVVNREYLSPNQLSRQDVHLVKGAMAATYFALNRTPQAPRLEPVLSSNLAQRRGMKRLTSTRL

In the case of `C[C@@H](Oc1cc(-c2cnn(C3CCNCC3)c2)cnc1N)c1c(Cl)ccc(F)c1Cl` [crizotinib], the inhibition at 1 µM at NEK2 is 6%; at FGFR3 it was 14%; at MKNK2, 1%; at NEK11 it was 7%; at AKT2 it was -1%; at ERN1 it was -3%. Besides, the inhibition at 1 µM is 43% at ABL2; -14% at PRKX; -8% at MYLK3; 0% at DCLK3; 4% at PLK4; -3% on PHKG1. Further, the inhibition at 1 µM at SLK was 36%; at HIPK2, 5%; at NEK3 it was -2%; at RPS6KA2 it was -7%; at MARK4, -15%; on CDK17, 3%.
